The source of these data is patent US11739098B2 (BRISTOL-MYERS SQUIBB COMPANY, priority 2017, dated 2023).

Holding throughout (format): cell-based
One experiment has as its target T1, human TLR9 (Homo sapiens, UniProt Q9NR96).
T1 construct: host or cells: HEK-Blue cells (HEK293-derived reporter line)
T1 sequence (Q9NR96 26-1032): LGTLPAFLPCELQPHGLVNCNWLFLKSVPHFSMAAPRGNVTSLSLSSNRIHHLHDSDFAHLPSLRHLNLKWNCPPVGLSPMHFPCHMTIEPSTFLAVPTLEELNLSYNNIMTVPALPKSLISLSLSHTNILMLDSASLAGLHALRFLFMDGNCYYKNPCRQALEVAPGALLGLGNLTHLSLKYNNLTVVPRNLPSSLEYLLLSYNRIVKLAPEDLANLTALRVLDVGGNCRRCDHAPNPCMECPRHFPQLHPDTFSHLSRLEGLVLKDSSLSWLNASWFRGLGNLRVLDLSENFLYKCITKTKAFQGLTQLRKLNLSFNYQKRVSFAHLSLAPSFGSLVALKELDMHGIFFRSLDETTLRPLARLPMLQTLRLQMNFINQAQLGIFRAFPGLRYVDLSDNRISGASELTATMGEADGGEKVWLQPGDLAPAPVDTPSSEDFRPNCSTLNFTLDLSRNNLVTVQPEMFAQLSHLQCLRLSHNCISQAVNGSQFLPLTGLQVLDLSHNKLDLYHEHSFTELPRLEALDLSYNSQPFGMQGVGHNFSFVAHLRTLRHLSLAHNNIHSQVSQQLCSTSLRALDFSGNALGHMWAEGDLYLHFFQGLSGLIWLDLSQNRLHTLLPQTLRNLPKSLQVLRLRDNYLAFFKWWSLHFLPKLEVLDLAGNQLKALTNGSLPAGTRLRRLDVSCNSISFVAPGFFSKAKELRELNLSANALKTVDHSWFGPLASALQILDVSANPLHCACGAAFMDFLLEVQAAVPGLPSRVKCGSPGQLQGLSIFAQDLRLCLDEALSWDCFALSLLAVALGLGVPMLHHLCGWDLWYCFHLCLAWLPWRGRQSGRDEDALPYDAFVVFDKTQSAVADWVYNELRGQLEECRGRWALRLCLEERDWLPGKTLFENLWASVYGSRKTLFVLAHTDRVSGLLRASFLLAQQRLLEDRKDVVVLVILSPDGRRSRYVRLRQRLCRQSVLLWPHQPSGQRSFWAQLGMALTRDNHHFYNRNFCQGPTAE
Put plainly: TLR9 inhibition reporter assay (HEK-Blue cells, SEAP reporter, ODN2006 stimulation). Conditions: HEK-Blue cells overexpressing human TLR9, SEAP reporter, ODN2006 5 nM. On the procedure:
(§1) TLR7/8/9 Inhibition Reporter Assays
(§2) HEK-Blue™-cells (Invivogen) overexpressing human TLR7, TLR8 or TLR9 receptors were used for screening inhibitors of these receptors using an inducible SEAP (secreted embryonic alkaline phosphatase) reporter gene under the control of the IFN-β minimal promoter fused to five NF-κB and AP-1-binding sites. Briefly, cells are seeded into Greiner 384 well plates (15000 cells per well for TLR7, 20,000 for TLR8 and 25,000 for TLR9) and then treated with test compounds in DMSO to yield a final dose response concentration range of 0.05 nM-50 μM. After a 30 minute compound pre-treatment at room temperature, the cells are then stimulated with a TLR7 ligand (gardiquimod at a final concentration of 7.5 μM), TLR8 ligand (R848 at a final concentration of 15.9 μM) or TLR9 ligand (ODN2006 at a final concentration of 5 nM) to activate NF-κB and AP-1 which induce the production of SLAP After a 22 hour incubation at […], SLAP levels are determined with the addition of HLK-Blue™ Detection reagent (Invivogen), a cell culture medium that allows for detection of SLAP, according to manufacturer's specifications. The percent inhibition is determined as the […] in the HEK-Blue signal present in wells treated with agonist plus DMSO alone compared to wells treated with a known inhibitor.
(In general: Reporter assays use an easily measured gene product as a stand-in for the process of interest.)

A further experiment addresses T2, human TLR8 (Homo sapiens, UniProt Q9NR97).
T2 construct: host or cells: HEK-Blue cells (HEK293-derived reporter line)
T2 sequence (Q9NR97 27-1041): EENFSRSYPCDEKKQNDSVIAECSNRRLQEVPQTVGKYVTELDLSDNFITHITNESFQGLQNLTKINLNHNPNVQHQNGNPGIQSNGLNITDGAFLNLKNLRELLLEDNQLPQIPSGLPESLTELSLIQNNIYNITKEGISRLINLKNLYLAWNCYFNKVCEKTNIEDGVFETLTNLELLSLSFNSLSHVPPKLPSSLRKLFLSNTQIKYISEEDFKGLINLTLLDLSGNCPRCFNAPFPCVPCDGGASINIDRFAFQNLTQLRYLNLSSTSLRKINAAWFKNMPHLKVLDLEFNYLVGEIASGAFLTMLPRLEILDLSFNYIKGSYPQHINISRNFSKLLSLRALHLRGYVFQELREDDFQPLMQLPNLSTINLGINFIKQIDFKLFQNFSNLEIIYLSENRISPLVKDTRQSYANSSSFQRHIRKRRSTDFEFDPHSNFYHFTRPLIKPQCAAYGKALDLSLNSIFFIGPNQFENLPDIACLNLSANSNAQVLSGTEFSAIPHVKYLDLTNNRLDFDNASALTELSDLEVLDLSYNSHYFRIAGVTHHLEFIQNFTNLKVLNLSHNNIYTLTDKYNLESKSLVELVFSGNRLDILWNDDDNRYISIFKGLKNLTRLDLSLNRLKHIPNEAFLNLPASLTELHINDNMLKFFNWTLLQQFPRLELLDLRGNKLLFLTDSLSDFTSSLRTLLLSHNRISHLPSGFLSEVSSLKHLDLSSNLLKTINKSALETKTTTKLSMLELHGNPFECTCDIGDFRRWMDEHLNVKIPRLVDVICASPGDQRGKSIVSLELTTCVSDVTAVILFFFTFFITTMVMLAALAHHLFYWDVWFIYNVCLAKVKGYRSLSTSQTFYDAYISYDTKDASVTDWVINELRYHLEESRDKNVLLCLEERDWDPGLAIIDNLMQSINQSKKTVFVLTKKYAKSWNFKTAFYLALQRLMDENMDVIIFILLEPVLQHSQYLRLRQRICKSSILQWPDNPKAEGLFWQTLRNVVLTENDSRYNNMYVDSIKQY
Put plainly: TLR8 inhibition reporter assay (HEK-Blue cells, SEAP reporter, R848 stimulation). Conditions: HEK-Blue cells overexpressing human TLR8, SEAP reporter, R848 15.9 μM. As to the method: as §1, §2

The target in a further experiment is T3, human TLR7 (Homo sapiens, UniProt Q9NYK1).
T3 construct: host or cells: HEK-Blue cells (HEK293-derived reporter line)
T3 sequence (Q9NYK1 27-1049): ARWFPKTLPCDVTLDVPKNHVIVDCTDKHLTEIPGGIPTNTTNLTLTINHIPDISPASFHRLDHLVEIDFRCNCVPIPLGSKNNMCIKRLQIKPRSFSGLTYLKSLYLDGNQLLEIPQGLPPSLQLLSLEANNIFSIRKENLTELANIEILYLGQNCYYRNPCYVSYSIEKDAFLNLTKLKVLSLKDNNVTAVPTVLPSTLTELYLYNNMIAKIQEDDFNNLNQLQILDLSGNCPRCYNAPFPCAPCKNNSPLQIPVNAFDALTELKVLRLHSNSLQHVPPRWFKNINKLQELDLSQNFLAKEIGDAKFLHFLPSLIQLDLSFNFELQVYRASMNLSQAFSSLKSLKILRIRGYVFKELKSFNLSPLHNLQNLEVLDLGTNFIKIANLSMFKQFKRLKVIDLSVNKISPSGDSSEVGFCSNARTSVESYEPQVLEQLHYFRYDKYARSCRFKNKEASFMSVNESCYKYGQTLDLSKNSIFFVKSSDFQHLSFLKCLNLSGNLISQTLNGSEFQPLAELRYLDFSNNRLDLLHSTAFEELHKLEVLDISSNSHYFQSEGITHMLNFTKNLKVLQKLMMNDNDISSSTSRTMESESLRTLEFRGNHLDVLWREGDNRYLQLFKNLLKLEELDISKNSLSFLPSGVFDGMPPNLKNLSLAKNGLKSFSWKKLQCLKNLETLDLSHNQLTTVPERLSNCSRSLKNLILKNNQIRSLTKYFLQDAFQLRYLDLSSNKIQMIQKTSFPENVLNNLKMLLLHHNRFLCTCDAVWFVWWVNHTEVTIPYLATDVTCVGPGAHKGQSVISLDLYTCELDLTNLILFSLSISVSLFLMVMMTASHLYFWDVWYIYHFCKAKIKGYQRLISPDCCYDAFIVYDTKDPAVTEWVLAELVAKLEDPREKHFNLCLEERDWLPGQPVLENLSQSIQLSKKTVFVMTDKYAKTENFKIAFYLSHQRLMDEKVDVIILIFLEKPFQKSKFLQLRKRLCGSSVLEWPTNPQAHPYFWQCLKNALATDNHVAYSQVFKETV
Put plainly: TLR7 inhibition reporter assay (HEK-Blue cells, SEAP reporter, gardiquimod stimulation). Conditions: HEK-Blue cells overexpressing human TLR7, SEAP reporter, gardiquimod 7.5 μM. As to the method:
as §1, §2

A word on the IC50: it is the point on the concentration scale where inhibition reaches its midpoint. Low readings indicate inhibition by little substance, high ones a need for much substance. Regarding `CNCCN1CCC(c2ccc3[nH]c(-c4ccc5c(c4)OCCN5C)c(C)c3c2)CC1` [Example 673, N-methyl-2-(4-(3-methyl-2-(4-methyl-3,4-dihydro-2H-benzo[b][1,4]oxazin-7-yl)-1H-indol-5-yl)piperidin-1-yl)ethan-1-amine], the concentration for half-maximal inhibition (IC50) against human TLR9 was 1000 to 50000 nM; at human TLR8, > 3130 nM; against human TLR7, > 50000 nM.
In the same order, the values of `COC(=O)C1CC(N2CCC(c3ccc4[nH]c(-c5ccnc6[nH]ncc56)c(C(C)C)c4c3)CC2)CCN1` (stereo not drawn) [Example 831, methyl 4-(3-isopropyl-2-(1H-pyrazolo[3,4-b]pyridin-4-yl)-1H-indol-5-yl)-[1,4′-bipiperidine]-2′-carboxylate] are 100 to 1000 nM, < 100 nM and < 100 nM.
Consider `Cc1cc(-c2[nH]c3ccc(C4CCNCC4)cc3c2C(C)C)cc2ocnc12` [Example 234, 6-(3-isopropyl-5-(piperidin-4-yl)-1H-indol-2-yl)-4-methylbenzo[d]oxazole], for which the figures for the IC50 against human TLR9, on human TLR8 and at human TLR7 were 1000 to 50000 nM, < 100 nM and < 100 nM, respectively.
For the compound `CCOc1cc(-c2[nH]c3ccc(C4CCN(CC(=O)NC)CC4)cc3c2C(C)C)cc2nc(C)nn12` [Example 349, 2-(4-(2-(5-ethoxy-2-methyl-[1,2,4]triazolo[1,5-a]pyridin-7-yl)-3-isopropyl-1H-indol-5-yl)piperidin-1-yl)-N-methylacetamide], the IC50 is 1000 to 50000 nM on human TLR9, < 100 nM against human TLR8 and < 100 nM on human TLR7.
`CC(C)c1c(-c2cnc3nccn3c2)[nH]c2ccc(C3CCN(CC(=O)N(C)C)CC3)cc12` [Example 363, 2-(4-(2-(imidazo[1,2-a]pyrimidin-6-yl)-3-isopropyl-1H-indol-5-yl)piperidin-1-yl)-N,N-dimethylacetamide]: the concentration for half-maximal inhibition (IC50) against human TLR9, on human TLR8 and on human TLR7 was 100 to 1000 nM in each case.
As for `Cc1cnc2ccc(-c3[nH]c4ccc(C5CCN(C(=O)CN(C)C)CC5)cc4c3C(C)C)cn12` [Example 522, 2-(dimethylamino)-1-(4-(3-isopropyl-2-(3-methylimidazo[1,2-a]pyridin-6-yl)-1H-indol-5-yl)piperidin-1-yl)ethan-1-one], the 50% inhibitory concentration (IC50) against human TLR9, against human TLR8 and against human TLR7 was 100 to 1000 nM each time.
As to `CN(C)CC(=O)N1CCC(c2ccc3[nH]c(-c4ccnc5[nH]ncc45)c(CC(F)F)c3c2)CC1` [Example 517, 1-(4-(3-(2,2-difluoroethyl)-2-(1H-pyrazolo[3,4-b]pyridin-4-yl)-1H-indol-5-yl)piperidin-1-yl)-2-(dimethylamino)ethan-1-one], the IC50 at human TLR9 is 100 to 1000 nM; against human TLR8, < 100 nM; at human TLR7 it was 100 to 1000 nM.
For the compound `Cc1cc2nccn2cc1-c1[nH]c2ccc(C3CCNCC3)cc2c1C(C)C` [Example 110, 6-(3-isopropyl-5-(piperidin-4-yl)-1H-indol-2-yl)-7-methylimidazo[1,2-a]pyridine], the IC50 is 100 to 1000 nM against human TLR9, < 100 nM at human TLR8 and < 100 nM against human TLR7.
For `CC(C)c1c(-c2cnc3ccnn3c2)[nH]c2ccc(C3CCN(C(=O)[C@@H]4NCC[C@H]4O)CC3)cc12` [Example 513, ((2R,3R)-3-hydroxypyrrolidin-2-yl)(4-(3-isopropyl-2-(pyrazolo[1,5-a]pyrimidin-6-yl)-1H-indol-5-yl)piperidin-1-yl)methanone], the IC50 is 1000 to 50000 nM against human TLR9, > 3130 nM on human TLR8 and 1000 to 50000 nM against human TLR7.
As to `Cc1ncc(CN2CCC(c3ccc4[nH]c(-c5ccnc6[nH]nc(C)c56)c(C(C)C)c4c3)CC2)[nH]1` [Example 872, 4-(3-isopropyl-5-(1-((2-methyl-1H-imidazol-5-yl)methyl)piperidin-4-yl)-1H-indol-2-yl)-3-methyl-1H-pyrazolo[3,4-b]pyridine], the values for the IC50 against human TLR9, against human TLR8 and against human TLR7 were 100 to 1000 nM, < 100 nM and 1000 to 50000 nM, respectively.
As for `CCc1c(-c2cccc3c2cnn3C)[nH]c2ccc(C3CCNCC3)cc12` [Example 100, 4-(3-ethyl-5-(piperidin-4-yl)-1H-indol-2-yl)-1-methyl-1H-indazole], the half-maximal inhibitory concentration (IC50) is 1000 to 50000 nM on human TLR9, > 50000 nM against human TLR8 and 1000 to 50000 nM against human TLR7.
